Source: ChEMBL document CHEMBL4145445, “Design, synthesis and biological assessment of new thiazolylhydrazine derivatives as selective and reversible hMAO-A inhibitors” (Eur J Med Chem, 2018)

Columns and labels:
[1] = target: T1, Amine oxidase [flavin-containing] A (Homo sapiens, UniProt P21397); experiment: Inhibition of human MAO-A using tyramine hydrochloride as substrate after 30 mins by Amplex Red reagent based horseradish peroxidase enzyme-coupled fluorescence assay
T1 sequence (P21397 whole entry): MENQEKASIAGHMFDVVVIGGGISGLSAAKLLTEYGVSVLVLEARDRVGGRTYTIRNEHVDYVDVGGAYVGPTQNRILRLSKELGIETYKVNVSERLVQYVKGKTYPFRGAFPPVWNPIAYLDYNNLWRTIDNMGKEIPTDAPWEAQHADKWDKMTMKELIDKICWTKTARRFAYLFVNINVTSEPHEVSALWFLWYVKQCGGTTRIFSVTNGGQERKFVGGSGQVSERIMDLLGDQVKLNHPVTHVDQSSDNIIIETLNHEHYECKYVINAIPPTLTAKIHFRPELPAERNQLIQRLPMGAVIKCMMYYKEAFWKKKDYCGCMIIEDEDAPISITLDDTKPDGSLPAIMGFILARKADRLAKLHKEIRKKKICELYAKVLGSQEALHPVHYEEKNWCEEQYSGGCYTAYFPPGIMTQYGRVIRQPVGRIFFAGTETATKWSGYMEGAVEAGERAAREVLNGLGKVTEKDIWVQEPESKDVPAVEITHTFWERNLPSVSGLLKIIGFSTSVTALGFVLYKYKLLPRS

[2] = target: T2, Amine oxidase [flavin-containing] B (Homo sapiens, UniProt P27338); experiment: Inhibition of human MAO-B using tyramine hydrochloride as substrate after 30 mins by Amplex Red reagent based horseradish peroxidase enzyme-coupled fluorescence assay
T2 sequence (P27338 whole entry): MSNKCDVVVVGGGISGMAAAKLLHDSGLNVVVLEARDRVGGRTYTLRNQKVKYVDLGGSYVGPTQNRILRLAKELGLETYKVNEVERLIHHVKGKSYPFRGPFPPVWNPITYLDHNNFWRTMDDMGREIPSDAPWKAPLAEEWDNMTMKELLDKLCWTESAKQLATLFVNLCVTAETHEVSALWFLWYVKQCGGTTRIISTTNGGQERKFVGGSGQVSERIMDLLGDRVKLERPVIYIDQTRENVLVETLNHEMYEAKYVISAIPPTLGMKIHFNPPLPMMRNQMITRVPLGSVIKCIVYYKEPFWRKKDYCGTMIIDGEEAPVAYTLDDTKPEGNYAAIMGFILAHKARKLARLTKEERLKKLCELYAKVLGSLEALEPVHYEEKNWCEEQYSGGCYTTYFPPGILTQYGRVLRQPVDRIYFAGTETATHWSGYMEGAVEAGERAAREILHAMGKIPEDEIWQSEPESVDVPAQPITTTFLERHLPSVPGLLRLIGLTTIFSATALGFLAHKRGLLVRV

[3] = target: T1, Amine oxidase [flavin-containing] A; experiment: Inhibition of human MAO-A at 10^-4 to 10^-3 M using tyramine hydrochloride as substrate after 30 mins by Amplex Red reagent based horseradish peroxidase enzyme-coupled fluorescence assay relative to control; conditions: 0.5 h
Homo sapiens = species on record: Homo sapiens; experiment: Selectivity index, ratio of IC50 for human MAO-B to IC50 for human MAO-A
Salmonella typhimurium [4] = experiment: Genotoxicity in Salmonella typhimurium TA100 assessed as increase in revertant colonies at 0.625 mg/ml in presence of Sprague-Dawley rat liver S9 fraction by Ames test relative to basal level; type: toxicity, organism-based; conditions: salmonella enterica subsp. enterica serovar typhimurium
Salmonella typhimurium [5] = experiment: Genotoxicity in Salmonella typhimurium TA98 assessed as increase in revertant colonies at 1.25 mg/ml in absence of Sprague-Dawley rat liver S9 fraction by Ames test relative to basal level; type: toxicity, organism-based; conditions: salmonella enterica subsp. enterica serovar typhimurium
Salmonella typhimurium [6] = experiment: Genotoxicity in Salmonella typhimurium TA100 assessed as increase in revertant colonies at 0.156 mg/ml in absence of Sprague-Dawley rat liver S9 fraction by Ames test relative to basal level; type: toxicity, organism-based; conditions: salmonella enterica subsp. enterica serovar typhimurium
[7] = target: T1, Amine oxidase [flavin-containing] A; experiment: Reversible-competitive inhibition of human MAO-A using varying levels of tyramine as substrate after 30 mins by Lineweaver-Burk plot
Salmonella typhimurium [8] = experiment: Genotoxicity in Salmonella typhimurium TA98 assessed as increase in revertant colonies at 0.625 mg/ml in presence of Sprague-Dawley rat liver S9 fraction by Ames test relative to basal level; type: toxicity, organism-based; conditions: salmonella enterica subsp. enterica serovar typhimurium
Salmonella typhimurium [9] = experiment: Genotoxicity in Salmonella typhimurium TA98 assessed as increase in revertant colonies at 0.156 mg/ml in presence of Sprague-Dawley rat liver S9 fraction by Ames test relative to basal level; type: toxicity, organism-based; conditions: salmonella enterica subsp. enterica serovar typhimurium
Salmonella typhimurium [10] = experiment: Genotoxicity in Salmonella typhimurium TA98 assessed as increase in revertant colonies at 5 mg/ml in presence of Sprague-Dawley rat liver S9 fraction by Ames test relative to basal level; type: toxicity, organism-based; conditions: salmonella enterica subsp. enterica serovar typhimurium
Salmonella typhimurium [11] = experiment: Genotoxicity in Salmonella typhimurium TA98 assessed as increase in revertant colonies at 0.625 mg/ml in absence of Sprague-Dawley rat liver S9 fraction by Ames test relative to basal level; type: toxicity, organism-based; conditions: salmonella enterica subsp. enterica serovar typhimurium
Salmonella typhimurium [12] = experiment: Genotoxicity in Salmonella typhimurium TA100 assessed as increase in revertant colonies at 2.5 mg/ml in presence of Sprague-Dawley rat liver S9 fraction by Ames test relative to basal level; type: toxicity, organism-based; conditions: salmonella enterica subsp. enterica serovar typhimurium
Salmonella typhimurium [13] = experiment: Genotoxicity in Salmonella typhimurium TA100 assessed as increase in revertant colonies at 0.3125 mg/ml in presence of Sprague-Dawley rat liver S9 fraction by Ames test relative to basal level; type: toxicity, organism-based; conditions: salmonella enterica subsp. enterica serovar typhimurium
Salmonella typhimurium [14] = experiment: Genotoxicity in Salmonella typhimurium TA100 assessed as increase in revertant colonies at 0.625 mg/ml in absence of Sprague-Dawley rat liver S9 fraction by Ames test relative to basal level; type: toxicity, organism-based; conditions: salmonella enterica subsp. enterica serovar typhimurium
Salmonella typhimurium [15] = experiment: Genotoxicity in Salmonella typhimurium TA100 assessed as increase in revertant colonies at 2.5 mg/ml in absence of Sprague-Dawley rat liver S9 fraction by Ames test relative to basal level; type: toxicity, organism-based; conditions: salmonella enterica subsp. enterica serovar typhimurium
Salmonella typhimurium [16] = experiment: Genotoxicity in Salmonella typhimurium TA100 assessed as increase in revertant colonies at 0.3125 mg/ml in absence of Sprague-Dawley rat liver S9 fraction by Ames test relative to basal level; type: toxicity, organism-based; conditions: salmonella enterica subsp. enterica serovar typhimurium
[17] = target: T2, Amine oxidase [flavin-containing] B; experiment: Inhibition of human MAO-B at 10^-4 to 10^-3 M using tyramine hydrochloride as substrate after 30 mins by Amplex Red reagent based horseradish peroxidase enzyme-coupled fluorescence assay relative to control; conditions: 0.5 h
Salmonella typhimurium [18] = experiment: Genotoxicity in Salmonella typhimurium TA98 assessed as increase in revertant colonies at 5 mg/ml in absence of Sprague-Dawley rat liver S9 fraction by Ames test relative to basal level; type: toxicity, organism-based; conditions: salmonella enterica subsp. enterica serovar typhimurium
Salmonella typhimurium [19] = experiment: Genotoxicity in Salmonella typhimurium TA100 assessed as increase in revertant colonies at 5 mg/ml in absence of Sprague-Dawley rat liver S9 fraction by Ames test relative to basal level; type: toxicity, organism-based; conditions: salmonella enterica subsp. enterica serovar typhimurium
Salmonella typhimurium [20] = experiment: Genotoxicity in Salmonella typhimurium TA98 assessed as increase in revertant colonies at 2.5 mg/ml in presence of Sprague-Dawley rat liver S9 fraction by Ames test relative to basal level; type: toxicity, organism-based; conditions: salmonella enterica subsp. enterica serovar typhimurium
Salmonella typhimurium [21] = experiment: Genotoxicity in Salmonella typhimurium TA98 assessed as increase in revertant colonies at 0.3125 mg/ml in presence of Sprague-Dawley rat liver S9 fraction by Ames test relative to basal level; type: toxicity, organism-based; conditions: salmonella enterica subsp. enterica serovar typhimurium
Salmonella typhimurium [22] = experiment: Genotoxicity in Salmonella typhimurium TA98 assessed as increase in revertant colonies at 1.25 mg/ml in presence of Sprague-Dawley rat liver S9 fraction by Ames test relative to basal level; type: toxicity, organism-based; conditions: salmonella enterica subsp. enterica serovar typhimurium
Salmonella typhimurium [23] = experiment: Genotoxicity in Salmonella typhimurium TA98 assessed as increase in revertant colonies at 0.3125 mg/ml in absence of Sprague-Dawley rat liver S9 fraction by Ames test relative to basal level; type: toxicity, organism-based; conditions: salmonella enterica subsp. enterica serovar typhimurium
Salmonella typhimurium [24] = experiment: Genotoxicity in Salmonella typhimurium TA98 assessed as increase in revertant colonies at 2.5 mg/ml in absence of Sprague-Dawley rat liver S9 fraction by Ames test relative to basal level; type: toxicity, organism-based; conditions: salmonella enterica subsp. enterica serovar typhimurium
Salmonella typhimurium [25] = experiment: Genotoxicity in Salmonella typhimurium TA100 assessed as increase in revertant colonies at 0.156 mg/ml in presence of Sprague-Dawley rat liver S9 fraction by Ames test relative to basal level; type: toxicity, organism-based; conditions: salmonella enterica subsp. enterica serovar typhimurium
Salmonella typhimurium [26] = experiment: Genotoxicity in Salmonella typhimurium TA100 assessed as increase in revertant colonies at 1.25 mg/ml in absence of Sprague-Dawley rat liver S9 fraction by Ames test relative to basal level; type: toxicity, organism-based; conditions: salmonella enterica subsp. enterica serovar typhimurium
Salmonella typhimurium [27] = experiment: Genotoxicity in Salmonella typhimurium TA100 assessed as increase in revertant colonies at 5 mg/ml in presence of Sprague-Dawley rat liver S9 fraction by Ames test relative to basal level; type: toxicity, organism-based; conditions: salmonella enterica subsp. enterica serovar typhimurium
Salmonella typhimurium [28] = experiment: Genotoxicity in Salmonella typhimurium TA98 assessed as increase in revertant colonies at 0.156 mg/ml in absence of Sprague-Dawley rat liver S9 fraction by Ames test relative to basal level; type: toxicity, organism-based; conditions: salmonella enterica subsp. enterica serovar typhimurium
Salmonella typhimurium [29] = experiment: Genotoxicity in Salmonella typhimurium TA100 assessed as increase in revertant colonies at 1.25 mg/ml in presence of Sprague-Dawley rat liver S9 fraction by Ames test relative to basal level; type: toxicity, organism-based; conditions: salmonella enterica subsp. enterica serovar typhimurium
NIH3T3 = experiment: Cytotoxicity against mouse NIH/3T3 cells by MTT assay; type: cell-based

In the case of `Brc1ccc(-c2csc(N/N=C/c3ccc(N4CCOCC4)cc3)n2)cc1`, the IC50 [1] is reported as 14.6 µM, the IC50 [2] is reported as > 100 µM and the “inhibition (INH)” value [3] is reported as > 50%. The Ratio IC50 (Homo sapiens) was > 6.84.

`Fc1ccc(-c2csc(N/N=C/c3ccc(N4CCOCC4)cc3)n2)c(F)c1` was tested, and the “fold change (FC)” value (Salmonella typhimurium [4]) was 1.4, the “fold change (FC)” value (Salmonella typhimurium [5]) was 0.5 and the “fold change (FC)” value (Salmonella typhimurium [6]) was 0.61. For the same molecule, the IC50 [1] was 0.011 µM, the Ki [7] was 0.0044 µM and the IC50 [2] was 17.6 µM. For the same molecule, the “fold change (FC)” value (Salmonella typhimurium [8]) was 1.34, the “fold change (FC)” value (Salmonella typhimurium [9]) was 1.34 and the “fold change (FC)” value (Salmonella typhimurium [10]) was 0.36. For the same molecule, the “inhibition (INH)” value [3] was > 50%, the “fold change (FC)” value (Salmonella typhimurium [11]) was 0.5 and the “fold change (FC)” value (Salmonella typhimurium [12]) was 1.14. For the same molecule, the “fold change (FC)” value (Salmonella typhimurium [13]) was 1.4, the “fold change (FC)” value (Salmonella typhimurium [14]) was 0.61 and the “fold change (FC)” value (Salmonella typhimurium [15]) was 0.22. The Ratio IC50 (Homo sapiens) was 1600, the “fold change (FC)” value (Salmonella typhimurium [16]) was 1 and the “inhibition (INH)” value [17] was > 50%. For the same molecule, the “fold change (FC)” value (Salmonella typhimurium [18]) was 0.64, the “fold change (FC)” value (Salmonella typhimurium [19]) was 0.33 and the “fold change (FC)” value (Salmonella typhimurium [20]) was 0.45. The “fold change (FC)” value (Salmonella typhimurium [21]) was 1.07, the “fold change (FC)” value (Salmonella typhimurium [22]) was 2.5 and the “fold change (FC)” value (Salmonella typhimurium [23]) was 0.59. The “fold change (FC)” value (Salmonella typhimurium [24]) was 0.3, the “fold change (FC)” value (Salmonella typhimurium [25]) was 1.08 and the “fold change (FC)” value (Salmonella typhimurium [26]) was 0.45. For the same molecule, the “fold change (FC)” value (Salmonella typhimurium [27]) was 1.08, the “fold change (FC)” value (Salmonella typhimurium [28]) was 0.5 and the “fold change (FC)” value (Salmonella typhimurium [29]) was 1.59. For the same molecule, the IC50 (NIH3T3) was > 1000 µM.

`Fc1ccc(-c2csc(N/N=C/c3ccc(N4CCCC4)cc3)n2)c(F)c1` was tested, and the IC50 [1] was 15.6 µM, the IC50 [2] was 141 µM and the “inhibition (INH)” value [3] was > 50%. For the same molecule, the Ratio IC50 (Homo sapiens) was 9.03 and the “inhibition (INH)” value [17] was > 50%.

For `Brc1ccc(-c2csc(N/N=C/c3ccc(N4CCCC4)cc3)n2)cc1`, the IC50 [1] was 61.3 µM, the IC50 [2] was > 1000 µM and the “inhibition (INH)” value [3] was > 50%. The Ratio IC50 (Homo sapiens) was > 16.3.
